Measurements: US20050239724A1, “Skin penetration enhancing components” (Wyeth, priority 1997, published 2005)

How the values were obtained:
[1] = Venous blood sirolimus levels after single topical application (MSGCMS); format: in vivo, human; conditions: normal skin, 4, 7 and 24 hours
Protocol: A formulation was formed of 8% sirolimus and 92% of a vehicle of capric acid (50%) with benzyl alcohol (50%). This was tested in single application experiments on four individuals with normal skin.
(§1) A formulation of sirolimus (2.2%) in a vehicle comprising isopropyl myristate 40%, benzyl alcohol 10% and capric acid 50% was tested in single application experiments on three individuals with normal skin. […] After 7 hours biopsy samples were taken from two of the individuals. These were bisected in parallel with the surface to give an upper and lower half, roughly corresponding to the epidermis and dermis. The skin was homogenised with acetonitrile and sirolimus concentration was determined by HPLC.

[2] = Skin biopsy tissue concentration, four 0.7 mm horizontal sections, acetonitrile extraction (Example 1); format: in vivo; conditions: human, 8 % sirolimus in the formulation
Protocol: In parallel, skin biopsies were taken from the individuals after 7 hours, the biopsy samples were glued to a glass slide and serially sectioned horizontally into 4 layers each 0.7 mm thick and extracted with acetonitrile.

[3] = Skin biopsy tissue concentration, upper and lower half, HPLC (Example 2); format: in vivo, human; conditions: 7 hours after application, 2.2% sirolimus in capric acid:isopropyl myristate:benzyl alcohol 50:40:10; for concentration at 7 h: human, skin biopsy, topical, 2.2 % sirolimus in the formulation, Subject A
Protocol: as §1

chronic plaque psoriasis = test: Double blind left-right comparison of topical sirolimus in chronic plaque psoriasis (Example 3); format: in vivo, human
Protocol: A double blind, left-right comparison of the effect of applying topical sirolimus in formulations as described in Examples 1 and 2, to 24 patients with chronic (over three months) plaque psoriasis was conducted. (22 out of the 24 patients were eventually analysed.) A single target plaque was treated for the first 6 weeks with the lower potency formulation of Example 2. After this the active treatment was increased to the higher potency formulation of Example 1 for 6 weeks unless a clear improvement on one side had already occurred.
Subjects were all aged over 18 years, were able to apply creams and had no other significant medical problems. Transaminases were not more than twice the upper limit of normal and subjects were selected to avoid those likely to have a holiday in sunlight during the 6-12 weeks of the trial.
Before the trial started, there was a two week washout period in which only bland emollients were applied to the target lesions.
Treatment was randomised and double blind. Hands were thoroughly washed between the twice daily application of the test formulations. The active formulation was applied consistently to one plaque while a control comprising only the vehicle base was applied consistently to the plaque on the opposite side. Where possible the arms or elbows were selected as target areas as cross contamination is less likely at these sites.
(§2) Assessments were done at weeks 0, 2, 4 and 6 on the low potency treatment and at 8, 10 and 12 on the higher dose formulation, provided there were no signs or laboratory evidence of toxicity. Clinical scoring was done at each attendance and areas traced at the start and finish of treatment. Biopsies from active and control lesions were performed at the end of treatment or at withdrawal. Biopsies were not done if an adverse event such as a reaction to the application occurred as this would influence the measures being assessed.
The lesions were also assessed at fortnightly intervals with subjective scoring on a scale of 0-8 for erythema, thickening, and scaling. […] These included pulsed A scan ultrasound measurement of lesion thickness and erythema measured with a reflectance erythema metre, both were averaged over 5 areas in each psoriatic lesion and were validated using a previous study which was performed using betamethasome as a reference.
At each visit we measured the full blood count, biochemistry, including urea, electrolytes, liver enzymes, bilirubin, calcium, magnesium, uric acid, glucose, amylase, muscle enzymes, lipids and cholesterol. […]
(§3) Cell counting in tissues was automated, using computer assisted image analysis (Seescan). Data was analysed by Student's T test for paired data and Wilcoxon's test.

Ki-67 = test: Biopsy immunohistochemistry, Ki-67 proliferating cells in the epidermis; format: in vivo, human; conditions: lesion biopsy at end of treatment; control mean 83/mm^3; P-0.027 (unpaired T test)
Protocol: as §2
(§4) In biopsies, epidermal thickness was measured and immunoperoxidase immunohistochemistry done using the following antibodies to count cells in a blinded fashion:
(§5) Thus, antibody Ki-67 was used to give a measure of hyperproliferation in the epidermis and CD4 helper lymphocytes were used to give a measure of auto-immune activity which drives psoriasis.
as §3

CD4 helper lymphocytes = test: Biopsy immunohistochemistry, CD4 helper lymphocytes; format: in vivo, human; conditions: lesion biopsy at end of treatment; control 61/mm^3; P-0.0026 (unpaired T-test)
Protocol: as §2, §4, §5, §3

With `CO[C@H]1C[C@@H]2CC[C@@H](C)[C@@](O)(O2)C(=O)C(=O)N2CCCC[C@H]2C(=O)O[C@H]([C@H](C)C[C@@H]2CC[C@@H](O)[C@H](OC)C2)CC(=O)[C@H](C)/C=C(\C)[C@@H](O)[C@@H](OC)C(=O)[C@H](C)C[C@H](C)/C=C/C=C/C=C/1C` [sirolimus] the “sirolimus levels in venous blood” value ([1]; 2.2% sirolimus in isopropyl myristate 40%, benzyl alcohol 10%, capric acid 50%, three individuals, MSGCMS) was “no significant levels of sirolimus were detected”, the “sirolimus levels in venous blood” value ([1]; 8% sirolimus in capric acid:benzyl alcohol 50:50, four individuals, MSGCMS detects down to 0.1 ng/ml) was “no significant levels of sirolimus were detected” and the concentration at 7 h ([2]; section 1 (surface, 0-0.7 mm), topical, subject A, section 1 (surface, 0-0.7 mm), 7 hours after application, 8% sirolimus in capric acid:benzyl alcohol 50:50, read-out: Sirolimus concentration, skin section 1) was 59000 ng/g. The concentration at 7 h ([2]; section 1 (surface, 0-0.7 mm), topical, subject B, section 1 (surface, 0-0.7 mm), 7 hours after application, 8% sirolimus in capric acid:benzyl alcohol 50:50, read-out: Sirolimus concentration, skin section 1) was 288000 ng/g, the concentration at 7 h ([2]; section 1 (surface, 0-0.7 mm), topical, subject C, section 1 (surface, 0-0.7 mm), 7 hours after application, 8% sirolimus in capric acid:benzyl alcohol 50:50, read-out: Sirolimus concentration, skin section 1) was 301000 ng/g and the concentration at 7 h ([2]; section 1 (surface, 0-0.7 mm), topical, subject D, section 1 (surface, 0-0.7 mm), 7 hours after application, 8% sirolimus in capric acid:benzyl alcohol 50:50, read-out: Sirolimus concentration, skin section 1) was 216000 ng/g. The concentration at 7 h ([2]; section 2 (0.7-1.4 mm), topical, subject B, section 2 (0.7-1.4 mm), 7 hours after application, 8% sirolimus in capric acid:benzyl alcohol 50:50, read-out: Sirolimus concentration, skin section 2) was 108000 ng/g, the concentration at 7 h ([2]; section 2 (0.7-1.4 mm), topical, subject C, section 2 (0.7-1.4 mm), 7 hours after application, 8% sirolimus in capric acid:benzyl alcohol 50:50, read-out: Sirolimus concentration, skin section 2) was 144000 ng/g and the concentration at 7 h ([2]; section 2 (0.7-1.4 mm), topical, subject D, section 2 (0.7-1.4 mm), 7 hours after application, 8% sirolimus in capric acid:benzyl alcohol 50:50, read-out: Sirolimus concentration, skin section 2) was 126000 ng/g. For the same compound, the concentration at 7 h ([2]; section 3, topical, subject A, section 3, 7 hours after application, 8% sirolimus in capric acid:benzyl alcohol 50:50, read-out: Sirolimus concentration, skin section 3) was 255000 ng/g, the concentration at 7 h ([2]; section 3, topical, subject B, section 3, 7 hours after application, 8% sirolimus in capric acid:benzyl alcohol 50:50, read-out: Sirolimus concentration, skin section 3) was 173000 ng/g and the concentration at 7 h ([2]; section 3, topical, subject C, section 3, 7 hours after application, 8% sirolimus in capric acid:benzyl alcohol 50:50, read-out: Sirolimus concentration, skin section 3) was 339000 ng/g. It also gave a concentration at 7 h ([2]; section 3, topical, subject D, section 3, 7 hours after application, 8% sirolimus in capric acid:benzyl alcohol 50:50, read-out: Sirolimus concentration, skin section 3) of 256000 ng/g, a concentration at 7 h ([2]; section 4, topical, subject A, section 4, 7 hours after application, 8% sirolimus in capric acid:benzyl alcohol 50:50, read-out: Sirolimus concentration, skin section 4) of 239000 ng/g and a concentration at 7 h ([2]; section 4, topical, subject B, section 4, 7 hours after application, 8% sirolimus in capric acid:benzyl alcohol 50:50, read-out: Sirolimus concentration, skin section 4) of 214000 ng/g. For the same compound, the concentration at 7 h ([2]; section 4, topical, subject C, section 4, 7 hours after application, 8% sirolimus in capric acid:benzyl alcohol 50:50, read-out: Sirolimus concentration, skin section 4) was 370000 ng/g, the concentration at 7 h ([2]; section 4, topical, subject D, section 4, 7 hours after application, 8% sirolimus in capric acid:benzyl alcohol 50:50, read-out: Sirolimus concentration, skin section 4) was 241000 ng/g and the “Sirolimus Concentration, lower skin segment” value ([3]; Subject B, Lower (2), roughly dermis) was 0.5 µg/mg. The “Sirolimus Concentration, upper skin segment” value ([3]; Subject B, Upper (1), roughly epidermis) was 1.5 µg/mg, the concentration at 7 h ([3]; lower half (roughly dermis), Lower (2), roughly dermis, read-out: Sirolimus Concentration, lower skin segment) was 333000 ng/g and the concentration at 7 h ([3]; upper half (roughly epidermis), Upper (1), roughly epidermis, read-out: Sirolimus Concentration, upper skin segment) was 0 ng/g. The “contact sensitivity to the topical preparations” value (chronic plaque psoriasis; 22 analysed patients, one to benzyl alcohol, one to sirolimus and one to both) was “Three of the twenty-two patients developed contact sensitivity”, the “Ultrasound thickness, mean” value (chronic plaque psoriasis; psoriatic lesion, topical twice daily, 2.2% then 8% formulation, vehicle control 2.96, NS) was 2.99 mm and the “Erythema measurement, mean” value (chronic plaque psoriasis; reflectance erythema metre, topical twice daily, 2.2% then 8% formulation, vehicle control 33.1, NS) was 34.5 arbitrary units. The “Clinical Score, mean” value (chronic plaque psoriasis; scale of 0-24, high values indicating a better result, final score, topical twice daily, 2.2% formulation 6 weeks then 8% formulation 6 weeks, vehicle control 9.1, p = 0.032) was 11.2, the “Ki-67 proliferating cells, mean” value (Ki-67) was 55 /mm^3 and the “CD4 cells, mean” value (CD4 helper lymphocytes) was 32.7 /mm^3.
